According to PubChem BioAssay AID179 (DTP/NCI, 2004):
Where “and” joins values, the source holds several entries; their conditions need not be identical. Equal values may be shown once. Calls of active or inactive are those of the source.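 The calls were made as follows: active = compounds giving half or more protection of infected cells from virus-caused growth loss, again on retest; inactive = the rest.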

System: CEM cells HIV-1 protection, formazan growth assay
Assay: NCI AIDS Antiviral Assay
Conditions: for IC50: measured here: growth of uninfected CEM cells
Summary of the method: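 Category rules: moderately active means at least 50% protection on retest, and confirmed active means 100% protection reproducibly. The underlying data came from a formazan growth assay in HIV-1-infected CEM cells.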

| Structure (SMILES) | EC50 | IC50 | outcome |
| --- | --- | --- | --- |
| C=CCc1cc(OC)c(O)c(C(=O)/C=C/c2ccc(OC)c(OC)c2)c1 | > 14.8 µM | > 14.8 µM | – |
| O=C1c2cc(Cl)ccc2OC2CCON12 (configuration not stated) | > 200 µM | > 200 µM | – |
| Cc1ccc(S(=O)(=O)OCC2OC(CCCO)C/C([Si](C)(C)C)=C\CC2Cl)cc1 (configuration not stated) | > 8.13 µM | > 8.13 µM | – |
| CCCCCCCCCCOC1C(C(O)CNCCCN(C)C)OC2OC3(CCCCC3)OC21 (configuration not stated) | > 200 µM | 1.02 µM | – |
| CCOC(=O)C12OC(OCC)(CC1(OCC)OCC)C1(CC1)C2=O (configuration not stated) | > 200 µM | > 200 µM | – |
| O=C1C2CC=CCC2C(=O)N1n1c(Cc2ccccc2)n[nH]c1=O (configuration not stated) | > 200 µM | > 200 µM | – |
| Cc1cc(-c2ccc(Cl)cc2)c(C#N)c(=S)n1C1OC(CO)C(O)C(O)C1O (configuration not stated) | > 200 µM | > 200 µM | – |
| CC1(C)O[C@@H]2COC(=O)[C@@H]2O1 | > 200 µM | > 200 µM | – |
| COc1ccc(C(=O)C(CO)Oc2ccccc2OC)cc1OC (configuration not stated) | > 759 µM | 513 µM | – |
| COc1ccc(Nc2cc(=O)[nH]c(=O)[nH]2)cc1 | > 200 µM | > 200 µM | – |
| S=c1ncc2c([nH]1)C1c3ccccc3C2c2ccccc21 | > 200 µM | 120 µM | – |
| NC(=O)c1cn(C2OC(CO)C(O)C2O)c(=O)[nH]c1=O (configuration not stated) | > 871 µM | > 871 µM | – |
| Cn1c(N)nc(-c2ccc(Cl)cc2)c1SSc1c(-c2ccc(Cl)cc2)nc(N)n1C | > 200 µM | > 200 µM | – |
| O=S(=O)(O)OCC1OC2OC3C(COS(=O)(=O)O)OC(OC4C(COS(=O)(=O)O)OC(OC5C(COS(=O)(=O)O)OC(OC6C(COS(=O)(=O)O)OC(OC7C(COS(=O)(=O)O)OC(OC8C(COS(=O)(=O)O)OC(OC1C(OS(=O)(=O)O)C2OS(=O)(=O)O)C(OS(=O)(=O)O)C8OS(=O)(=O)O)C(OS(=O)(=O)O)C7OS(=O)(=O)O)C(OS(=O)(=O)O)C6OS(=O)(=O)O)C(OS(=O)(=O)O)C5OS(=O)(=O)O)C(OS(=O)(=O)O)C4OS(=O)(=O)O)C(OS(=O)(=O)O)C3OS(=O)(=O)O (configuration not stated) | 21.4 µM and > 50.1 µM | 75.9 µM and > 50.1 µM | – |
| C=C[C@@H]1c2ccccc2C=C[C@]12C=CC(=O)CC2 | > 57.5 µM | 21.9 µM | – |
| Cn1c(N)c2c3c(sc2nc1=O)CCCC3 | 77.6 µM | > 100 µM | – |
| COC(=O)C1C(=O)C(C(=O)OC)C2C(C(=O)OC)C(=O)C(C(=O)OC)C12 (configuration not stated) | 166 µM | 355 µM | – |
| CC(=O)c1c2c(cc3c1CC1(C3)Cc3cc4c(c(C(=O)O)c3C1)CCC4)CCC2 (configuration not stated) | > 18.6 µM | > 18.6 µM | – |
| COC(=O)C1Cc2c([nH]c3ccccc23)-c2[nH]c3ccccc3c2CC(NC(C)=O)C(=O)N2CCCC2C(=O)N1 (configuration not stated) | > 200 µM | 36.3 µM | – |
| COc1cc2ccnc3c2c(c1OC)CC1CC(O)C(OC)CC31 (configuration not stated) | – | – | inactive |
| CCOC(=O)c1ccc(CSc2ccccc2C(=O)O)c([N+](=O)[O-])c1 | > 14.5 µM | > 14.5 µM | – |

| Structure (SMILES) | EC50 | IC50 | outcome |
| --- | --- | --- | --- |
| COC(=O)C1=C(C)N(NC(=O)c2cccc(Cl)c2)C(C)(O)C12CCOC2=O (configuration not stated) | > 631 µM | 275 µM | – |
| N#C/C(=C\c1cccc(Cl)c1)C(=O)c1ccccc1 | > 112 µM | 55 µM | – |
| COC(=O)C(=O)C(C(=O)C(=O)Nc1ccccc1C(N)=O)c1nc2ccc([N+](=O)[O-])cc2[nH]c1=O (configuration not stated) | > 525 µM | 372 µM | – |
| Cc1cc(N(CCC#N)S(=O)(=O)c2ccccc2)ccc1/C=C1\N=C(c2ccc(Cl)cc2)OC1=O | > 257 µM | > 257 µM | – |
| COc1cc(OC)c(OC)cc1/C=N/N=C(\N)NO | > 200 µM | > 200 µM | – |
| CSC(SC)(C(=O)O)c1cc(-c2c(Cl)cccc2Cl)no1 | > 81.3 µM | 70.8 µM | – |
| O=c1[nH]c(=O)n(C2C=CC(CO)O2)cc1COCC(F)(F)F (configuration not stated) | 3.02 µM | 105 µM | – |
| COC(=O)c1ccccc1NC(=NC1CCCCCC1)NS(=O)(=O)c1ccc(C)cc1 | > 200 µM | > 200 µM | – |
| CC(C)/C(Cl)=N\OC(=O)Nc1ccccc1F | > 200 µM | 7.94 µM | – |
| COC1/C=C\C=C(/C)C(=O)NC2=CC(=O)C(NCCCl)=C(CC(C)CC(OC)C(O)C(C)/C=C(/C)C1OC(N)=O)C2=O (configuration not stated) | – | – | inactive |
| COc1ccc(N2C(=O)C3c4[nH]c5ccc(OCc6ccccc6)cc5c4C4CCC(C(C)(C)C)CC4C3C2=O)cc1 (configuration not stated) | > 200 µM | 16.6 µM | – |
| CC(=O)c1c(-c2ccc(O)cc2)oc2cc(O)ccc12 | > 347 µM | 63.1 µM | – |
| C=CC1(O)CC(n2cc(C)c(=O)[nH]c2=O)OC1CO (configuration not stated) | > 200 µM | > 200 µM | – |
| CSc1cc(-c2ccccn2)nc(-c2ccccn2)c1.CSc1cc(-c2ccccn2)nc(-c2ccccn2)c1.[Cu+2].[O-][Cl+3]([O-])([O-])[O-] | > 200 µM | 0.0631 µM | – |
| Cc1cn(C2CC(O)C(COC(=O)CCCCCCCCCCBr)O2)c(=O)[nH]c1=O (configuration not stated) | > 102 µM | 53.7 µM | – |
| Cc1cc(S(=O)(=O)Nc2nnc3c4ccccc4ccn23)c(S)cc1Cl | 155 µM | > 200 µM | – |
| CN=C(N)c1ncn(C2OC(CO)C(O)C2O)n1 (configuration not stated) | – | – | inactive |
| O=C(O)c1ccc(C(c2c(O)c3ccccc3oc2=O)c2c(O)c3ccccc3oc2=O)cc1 | > 200 µM | 191 µM | – |
| CCOC(=O)c1oc2ccc(OC)c3c2c1CCC3 | – | – | inactive |
| Cc1ccc(S(=O)OC2c3ccccc3Cc3ccccc32)cc1 (configuration not stated) | – | – | inactive |
| Cc1cc(N)c2cc(NC(=O)CCCCCCCCC(=O)Nc3ccc4nc(C)cc(N)c4c3)ccc2n1 | – | – | inactive |

| Structure (SMILES) | EC50 | IC50 | outcome |
| --- | --- | --- | --- |
| CC(=O)OC1CC2OC(Cc3ccccc32)O1 (configuration not stated) | > 200 µM | > 200 µM | – |
| O=C(COc1ccc(Br)cc1Br)N1N=C(c2ccc([N+](=O)[O-])o2)CC1(O)c1ccccc1 (configuration not stated) | > 6.61 µM | > 6.61 µM | – |
| CCOC(=O)C1Cc2c(ccc(OC)c2OC)C(=O)C1N (configuration not stated) | – | – | inactive |
| NC(CSS(=O)(=O)O)=NCC12CC3CC(CC(C3)C1)C2 | > 200 µM | 32.4 µM | – |
| CC(=O)Nc1c(I)c(C(=O)O)c(I)c(N(C)C(C)=O)c1I | > 200 µM | > 200 µM | – |
| C=C1C(OC(=O)CC(c2ccccc2)N(C)C)C[C@H](OC(C)=O)[C@]2(C)C1C(O)[C@@H]1CC(OC(C)=O)C(C)=C([C@@H](OC(C)=O)C2OC(C)=O)C1(C)C (some centres not stated) | – | – | inactive |
| C=CCN1CCC2(CC1)NC(=O)c1ccccc1O2 | > 200 µM | > 200 µM | – |
| Cn1c(=O)c(NC(=O)C(Cl)(Cl)Cl)nc2ccccc21 | > 93.3 µM | > 93.3 µM | – |
| CC1=C2[C@@H](c3ccccc3)C3C=CC2(c2ccccc23)N(C(=O)Nc2cccc3ccccc23)C1=O (some centres not stated) | > 5.75 µM | > 5.75 µM | – |
| O=C1NC(=S)N/C1=C\c1cccs1 | > 200 µM | 182 µM | – |
| FC(F)(Sc1nc2ccccc2[nH]1)c1nc2ccccc2o1 | > 200 µM | > 200 µM | – |
| CN(C)CC/C(=N\Nc1c(F)c(F)c(F)c(F)c1F)c1ccccc1 | – | – | inactive |
| NNC(=O)C(=O)N/N=C1\CCC(=O)CC1C(=O)CCC(=O)Nc1ccc(Cl)cc1 (configuration not stated) | > 32.4 µM | > 32.4 µM | – |
| CN(C)c1nc(N(C)C)nc(N(C)C)n1 | > 34.7 µM | 26.3 µM | – |
| COc1ccc(C(CC(=O)c2ccccc2)C(=O)c2ccc3c(c2)OCO3)cc1 (configuration not stated) | > 200 µM | > 200 µM | – |
| CC(=O)c1sc2c(c1OC(=O)c1ccc(Cl)cc1)c(=O)n(-c1ccccc1)c(=S)n2-c1ccccc1 | > 200 µM | 0.776 µM | – |
| CC(C)(c1ccsc1)c1sccc1C(=O)O | > 200 µM | > 200 µM | – |
| CCCCCCCCCCCCCCCCCCOC(COP(=O)(O)OCC1CCC(n2cnc3c(=O)[nH]cnc32)O1)COP(=O)(O)OCC1OC(n2cc(C)c(=O)[nH]c2=O)CC1N=[N+]=[N-] (configuration not stated) | 1.17 µM | 162 µM | – |
| Cc1ccccc1C(C#N)/C(=N/NC(=O)C(=O)NN)C(=O)Nc1cccc(C(F)(F)F)c1 (configuration not stated) | > 209 µM | > 209 µM | – |
| N#C/C(=C\NC(=S)NCc1ccccc1)c1nc2ccccc2s1 | > 200 µM | 47.9 µM | – |
| CCOC(=O)C1Cc2c([nH]c(=O)[nH]c2=O)OC1(C)c1ccccc1 (configuration not stated) | > 200 µM | > 200 µM | – |

| Structure (SMILES) | EC50 | IC50 | outcome |
| --- | --- | --- | --- |
| N#CC1C(=O)Nc2sc(C(=O)c3ccc(Br)cc3)c(N)c2C12CCCCC2 (configuration not stated) | > 200 µM | 11.5 µM | – |
| C/C(CN1C(=O)c2ccccc2C1=O)=N\NS(C)(=O)=O | > 851 µM | 589 µM | – |
| C[C@]12CCC(=O)C=C1CC[C@@H]1C2CC[C@@]2(C)C1CC[C@@H]2OC(=O)C12OC1CCC2=O (some centres not stated) | > 200 µM | 10.7 µM | – |
| CC(=O)N(CC(=O)C(=O)NNc1ccoc1)c1ccc(Cl)cc1 | > 200 µM | > 200 µM | – |
| Nc1nc(=O)n(C2CCC(CO)O2)cc1F (configuration not stated) | 0.151 µM | 32.4 µM | – |
| COc1nc(N)c(NC2OC(CO)C(O)C2O)c(=O)[nH]1 (configuration not stated) | > 200 µM | 112 µM and 126 µM | – |
| O=C(CNc1ccc(Cl)cc1Cl)Nn1c(-c2ccccc2)nc2ccccc2c1=O | > 200 µM | 10.5 µM | – |
| Cc1cc(Cl)ccc1NC(=O)/C(Cl)=C(/Cl)C(=O)O | – | – | inactive |
| CCN(CC)CCNc1ccc(CO)c2oc3ccccc3c(=O)c12 | > 363 µM | 2.4 µM | – |
| CNc1ccccc1S(=O)(=O)c1ccccc1Br | > 200 µM | 18.2 µM | – |
| CC(C)(C)OC(=O)Cn1ncn(NC(=O)Cc2ccccc2)c1=O | > 200 µM | > 200 µM | – |
| CCOP(=O)(OCC)C(C)(CC)N/C(=N/C(NC(C)=O)(C(F)(F)F)C(F)(F)F)NC1=NC(C(F)(F)F)(C(F)(F)F)N=C(C(F)(F)F)O1 (configuration not stated) | > 200 µM | 14.5 µM | – |
| Cc1cccc2c(NCCC[N+](C)(C)[O-])c3c([N+](=O)[O-])ccc(C)c3nc12 | > 100 µM | 0.372 µM | – |
| Cc1nn(-c2ccccc2)c(CC(Cc2c([N+](=O)[O-])c(C)nn2-c2ccccc2)c2ccccc2)c1[N+](=O)[O-] | > 10 µM | > 10 µM | – |
| Cc1cn(C2CC(O)C(COC(=O)CCCCCCCCCCCBr)O2)c(=O)[nH]c1=O (configuration not stated) | 29.5 µM | 51.3 µM | – |
| COCC12CC(CC1=O)C1C2ON2c3ccccc3C(=O)C12c1ccccc1 (configuration not stated) | > 50.1 µM | > 50.1 µM | – |
| CC(C(=O)O)c1ccc2c(c1)Cc1ccccc1-2 (configuration not stated) | > 200 µM | > 200 µM | – |
| CCC1(c2ccccc2)Oc2ccccc2-n2cccc2C1=O (configuration not stated) | 1.78 µM | 5.01 µM | – |
